# According to US20210077420A1, “Methods of Treatment of Gout” (priority 2017, published 2021):
# Assays:
# Format in all cases: physicochemical
# [1] = Solubility enhancement of MSU crystals in phosphate buffered saline (Examples 2A, 2B); conditions: Table 3
# [2] = as above
# Procedure: A phosphate buffered saline diluent was prepared by dissolving 8.2 g of NaCl and 0.68 g of KH2PO4 in 500 mL of deionised water in a 1 L flask. An NaOH solution was prepared by dissolving 0.399 g of NaOH in 100 mL of deionised water. 39.1 mL of the 0.1 M NaOH solution was then added to the 1 L flask and the volume was made up to 1 L with deionised water. The pH was adjusted to 7.4.
# Approximately 5 mg of monosodium urate crystals was then suspended in 4.75 mL of the phosphate buffered saline diluent. A 0.25 mL amount of a solubility enhancer was then added to the suspension of monosodium urate crystals. […] In the case of the solubility enhancer being a mix of components, equal portions by volume of each component was added, unless indicated otherwise. This was then stirred for about 16 hours.
# A sample of the supernatant was then taken, filtered using standard techniques (e.g. a syringe filter), and analysed by high-performance liquid chromatography (HPLC) to determine the concentration of uric acid/urate present in solution.
# [3] = Solubility enhancement of MSU crystals in aqueous NaCl solution (Example 1); conditions: 16 h; for % vs control: 2.5 mL enhancer + 2.5 mL NaCl solution, control (water only) = 100%; for Concentration of urate: 2.5 mL enhancer + 2.5 mL NaCl solution (8.2 g/L), about 8 mg MSU, 25 °C, mixes equal portions by volume, control 0.043
# Procedure: A NaCl solution was prepared by dissolving 8.2 g of NaCl in 1 L of deionised water. Approximately 8 mg of monosodium urate crystals was then suspended in 2.5 mL of the NaCl solution. A 2.5 mL amount of a solubility enhancer was then added to the suspension of monosodium urate crystals. In the case of the solubility enhancer being a mix of components, equal portions by volume of each component was added. This was then mixed for about 16 hours on a roller mixer.
# A sample of the supernatant was then taken, filtered using standard techniques (e.g. a syringe filter), and analysed by high-performance liquid chromatography (HPLC) to determine the concentration uric acid/MSU present in solution.
# All samples were analysed using a HPLC system equipped with a variable wavelength UV detector and a reversed phase column (5 μm ODS2, 4.6 mm×150 mm, Waters Spherisorb). The mobile phase was 35 mM sodium acetate in water with pH adjusted to 5.0 using acetic acid. The flow rate was set at 1 mL/min and UV detection at a wavelength of 292 nm. Sample injection volume was 50.0 μL and all operations were carried out at 25° C. Standard solutions of MSU were made up in the range of 15-250 μg/mL and analysed as above.
# [4] = 0.1% solubility enhancer in PBS
# [5] = Table 3, 5% by volume solubility enhancer in PBS
# [6] = Table 2, 5% by volume solubility enhancer in PBS pH 7.4, control = 100%
compound,measurement,setting,value
O=C(O)c1ccc(O)cc1 [4-hydroxybenzoic acid],% vs control,[1]; 0.05% solubility enhancer in PBS,160%
same,% vs control,[1]; [4],193%
same,% vs control,[1]; 1% solubility enhancer in PBS,205%
same,% vs control,[2]; [5],241%
OCc1ccc(O)cc1 [4-hydroxybenzyl alcohol],% vs control,[1]; 1% solubility enhancer in PBS,151%
same,% vs control,[2]; [5],190%
O=C(O)c1ccccc1 [Benzoic acid],% vs control,[1]; [4],147%
same,% vs control,[1]; 1% solubility enhancer in PBS,159%
same,% vs control,[2]; [5],189%
OCc1ccccc1 [Benzyl alcohol],% vs control,[1]; 0.5% solubility enhancer in PBS,152%
same,% vs control,[1]; 2% solubility enhancer in PBS,170%
same,% vs control,[1]; 3% solubility enhancer in PBS,197%
same,% vs control,[1]; 4% solubility enhancer in PBS,227%
same,% vs control,[2]; [6],263%
OCCO [Ethylene glycol],% vs control,[2]; [6],112%
O=C(O)/C=C/C(=O)O [Fumaric acid],% vs control,[3],151%
CC(=O)OC/C=C(\C)CCC=C(C)C [Geranyl acetate],% vs control,[3],209%
OCC(O)CO [Glycerol],% vs control,[3],149%
same,% vs control,[2]; [6],114%
CCCCCCCC/C=C\CCCCCCCC(=O)OC [Methyl oleate],% vs control,[2]; [6],119%
CN1CCCC1=O [N-methylpyrrolidone],% vs control,[3],200%
CCCCCCCC/C=C\CCCCCCCC(=O)O [Oleic acid],% vs control,[1]; 1% solubility enhancer in PBS,118%
same,% vs control,[1]; 2% solubility enhancer in PBS,119%
CC(O)CO (centres unmarked) [Propylene glycol],% vs control,[3],114%
same,% vs control,[2]; [6],114%
O=C(O)c1ccccc1O [Salicylic acid],% vs control,[1]; [4],281%
CC(=O)OCC(COC(C)=O)OC(C)=O [Triacetin],% vs control,[1]; 4% solubility enhancer in PBS,111%
same,% vs control,[2]; [6],165%
same,% vs control,[2]; [5],113%
Sorbitan monooleate,Concentration of urate,[3],65 µg/mL
same,% vs control,[3],151%
Span 85,Concentration of urate,[3],57 µg/mL
